Tests used:
[1] = system: Type II α7-nAChRs; conditions: cited from earlier work
[2] = target: α7-2-nAChRs (Rattus norvegicus, UniProt Q05941, INS117GCQLHFDQDLQNMLLREACAQAGEDLRVS); assay: Two-electrode voltage-clamp of Xenopus oocytes injected with α7-2 cRNA
[3] = target: α7-1-nAChRs (Rattus norvegicus, UniProt Q05941); assay: Two-electrode voltage-clamp of Xenopus oocytes injected with α7-1 cRNA

For α-bungarotoxin [αBgt], the “block by αBgt” value [1] is given as over 90%, the “time of toxin washout within which inhibition is reversed” value [1] is given as at most 5 min and the “block by αBgt” value [2] is given as over 90%. The “effect on transient and sustained components of the ACh-evoked current” value [2] was “abolished”, the “inhibition of peak ACh-evoked current” value [2] was 93±3% and the “reversal of αBgt inhibition after washout” value [2] was “recovered to near control levels”. For the same substance, the “time of toxin washout within which inhibition is reversed” value [2] was at most 5 min and the “reversal of αBgt block after washout” value [3] was “did not appreciably reverse”.

— patent US7563595B2 (University of South Florida, priority 2002, dated 2009)
